Laboratory results from PubChem BioAssay (NCI).
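Step 1: Grow cells in 96-well plates. Step 2: Expose to compound for 48 hours at 5 concentrations. Step 3: Interpolate endpoints linearly; if unreached, use highest concentration. TGI denotes the concentration required for complete inhibition of growth.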

Key:
Assay in all cases: NCI anticancer screen, dose series, 48 h
[1] = system: 786-0 renal
[2] = system: A498 renal
[3] = system: A549 NSCLC
[4] = system: ACHN renal
[5] = system: BT-549 breast
[6] = system: CAKI-1 renal
[7] = system: CCRF-CEM leukemia
[8] = system: COLO 205 colon
[9] = system: DU-145 prostate
[10] = system: EKVX NSCLC
[11] = system: HCC-2998 colon
[12] = system: HCT-116 colon
[13] = system: HCT-15 colon
[14] = system: HL-60(TB) leukemia
[15] = system: HOP-62 NSCLC
[16] = system: HOP-92 NSCLC
[17] = system: HS 578T breast
[18] = system: HT29 colon
[19] = system: IGROV1 ovarian
[20] = system: K-562 leukemia
[21] = system: KM12 colon
[22] = system: LOX IMVI melanoma
[23] = system: M14 melanoma
[24] = system: MCF7 breast
[25] = system: MDA-MB-231 breast
[26] = system: MDA-MB-435
[27] = system: MDA-N
[28] = system: MOLT-4 leukemia
[29] = system: NCI-H226 lung
[30] = system: NCI-H23 lung
[31] = system: NCI-H460 lung
[32] = system: NCI-H522 lung
[33] = system: NCI/ADR-RES ovarian
[34] = system: OVCAR-3 ovarian
[35] = system: OVCAR-4 ovarian
[36] = system: OVCAR-5 ovarian
[37] = system: OVCAR-8 ovarian
[38] = system: PC-3 prostate
[39] = system: RPMI-8226 leukemia
[40] = system: RXF 393 renal
[41] = system: SF-268 CNS
[42] = system: SF-295 CNS
[43] = system: SF-539 CNS
[44] = system: SK-MEL-2 melanoma
[45] = system: SK-MEL-5 melanoma
[46] = system: SK-OV-3 ovarian
[47] = system: SN12C renal
[48] = system: SNB-19 CNS
[49] = system: SNB-75 CNS
[50] = system: SW-620 colon
[51] = system: T-47D breast
[52] = system: TK-10 renal
[53] = system: U251 CNS
[54] = system: UACC-257 melanoma
[55] = system: UACC-62 melanoma
[56] = system: UO-31 renal
[57] = system: MALME-3M melanoma
[58] = system: SK-MEL-28 melanoma
[59] = system: SR leukemia

With `Cc1nc(C)c(C(=O)NNC(=O)c2ccccc2)cc1C(=O)NNC(=O)c1ccccc1` the TGI [1] was > 100 µM, the TGI [2] was > 100 µM and the TGI [3] was > 100 µM. The TGI [4] was > 100 µM, the TGI [5] was > 100 µM and the TGI [6] was > 100 µM. For the same compound, the TGI [7] was > 100 µM, the TGI [8] was > 100 µM and the TGI [9] was > 100 µM. The TGI [10] was > 10 µM, the TGI [11] was > 100 µM and the TGI [12] was > 100 µM. For the same compound, the TGI [13] was > 100 µM, the TGI [14] was > 100 µM and the TGI [15] was > 100 µM. For the same compound, the TGI [16] was > 100 µM, the TGI [17] was > 100 µM and the TGI [18] was > 100 µM. For the same compound, the TGI [19] was > 10 µM, the TGI [20] was > 100 µM and the TGI [21] was > 10 µM. The TGI [22] was > 100 µM, the TGI [23] was > 100 µM and the TGI [24] was > 100 µM. For the same compound, the TGI [25] was > 100 µM, the TGI [26] was > 100 µM and the TGI [27] was > 100 µM. The TGI [28] was > 100 µM, the TGI [29] was > 100 µM and the TGI [30] was > 100 µM. The TGI [31] was > 100 µM, the TGI [32] was > 100 µM and the TGI [33] was > 100 µM. For the same compound, the TGI [34] was > 100 µM, the TGI [35] was > 100 µM and the TGI [36] was > 100 µM. The TGI [37] was > 100 µM, the TGI [38] was > 100 µM and the TGI [39] was > 100 µM. For the same compound, the TGI [40] was > 100 µM, the TGI [41] was > 100 µM and the TGI [42] was > 100 µM. For the same compound, the TGI [43] was > 100 µM, the TGI [44] was > 100 µM and the TGI [45] was > 100 µM. For the same compound, the TGI [46] was > 100 µM, the TGI [47] was > 100 µM and the TGI [48] was > 100 µM. For the same compound, the TGI [49] was > 10 µM, the TGI [50] was > 100 µM and the TGI [51] was > 100 µM. For the same compound, the TGI [52] was > 100 µM, the TGI [53] was > 100 µM and the TGI [54] was > 100 µM. For the same compound, the TGI [55] was > 100 µM and the TGI [56] was > 100 µM.

For `C(=N\Nc1nnc(-c2nnc(N/N=C/c3ccccc3)o2)o1)/c1ccccc1`, the TGI [1] was > 10 µM, the TGI [2] was > 10 µM and the TGI [3] was > 10 µM. The TGI [4] was > 10 µM, the TGI [5] was > 10 µM and the TGI [6] was > 10 µM. The TGI [7] was > 10 µM, the TGI [8] was > 10 µM and the TGI [9] was > 10 µM. For the same compound, the TGI [10] was > 10 µM, the TGI [11] was > 10 µM and the TGI [12] was > 10 µM. For the same compound, the TGI [13] was > 10 µM, the TGI [14] was > 10 µM and the TGI [15] was > 10 µM. For the same compound, the TGI [16] was > 10 µM, the TGI [17] was > 10 µM and the TGI [18] was > 10 µM. The TGI [19] was > 10 µM, the TGI [20] was > 10 µM and the TGI [21] was > 10 µM. For the same compound, the TGI [23] was > 10 µM, the TGI [57] was > 10 µM and the TGI [24] was > 10 µM. For the same compound, the TGI [25] was > 10 µM, the TGI [26] was > 10 µM and the TGI [27] was > 10 µM. The TGI [28] was > 10 µM, the TGI [29] was > 10 µM and the TGI [30] was > 10 µM. For the same compound, the TGI [31] was > 10 µM, the TGI [33] was > 10 µM and the TGI [34] was > 10 µM. The TGI [35] was > 10 µM, the TGI [36] was > 10 µM and the TGI [37] was > 10 µM. For the same compound, the TGI [38] was > 10 µM, the TGI [39] was > 10 µM and the TGI [40] was > 10 µM. The TGI [41] was > 10 µM, the TGI [42] was > 10 µM and the TGI [43] was > 10 µM. For the same compound, the TGI [58] was > 10 µM, the TGI [45] was > 10 µM and the TGI [47] was > 10 µM. For the same compound, the TGI [48] was > 10 µM, the TGI [59] was > 10 µM and the TGI [50] was > 10 µM. For the same compound, the TGI [51] was > 10 µM, the TGI [52] was > 10 µM and the TGI [53] was > 10 µM. The TGI [54] was > 10 µM, the TGI [55] was > 10 µM and the TGI [56] was > 10 µM.
